Laboratory results reported in patent US3984555A, “Therapeutic piperazinylalkyl-quinazolone-(4)-derivatives” (Byk Gulden Lomberg Chemische Fabrik Gesellschaft mit …, priority 1970, dated 1976).
Read-outs that look alike come from different tables or passages of the source.

Experiments:
[1] = test system: defence reaction after the thermal stimulation of the tail of the mouse; assay: Analgesic effect on the mouse: delay in defence reaction after thermal stimulation of the tail (Table IV); type: in vivo; conditions: po, read-out: Delay in the defence reaction after the thermal stimulation of the tail of the mouse by 25% by mg/kg per os
From the text: From Table IV below one can see the analgesic action, measured in terms of the delayed reaction during the thermal irritation of the mouse tail. The analgesically effective doses are also below those which reduce the motor behaviour, that is to say the normal movement processes (cf. Table III).
Analgesic effect on the mouse
Delay in the defence reaction after
the thermal stimulation of the tail

[2] = test system: running activity of mice pre-treated with α-amphetamine sulphate; assay: Inhibition of running activity of mice pre-treated with α-amphetamine sulphate (Table III, c); type: in vivo; conditions: Mus musculus, ip, 3 h, 5 mg/kg α-amphetamine sulphate, 180 minutes; for inhibition in vivo at 12 mg/kg: 12mg/kg i/p, read-out: c % inhibition of motility in the treadwheel by 12mg/kg i/p; for inhibition in vivo at 25 mg/kg: 25mg/kg i/p, read-out: c % inhibition of motility in the treadwheel by 25mg/kg i/p
mouse [3] = assay: Inhibition of spontaneous motility, sedation, muscular relaxation, loss of grip on horizontal wire mesh in mice (Table III, b); type: in vivo; conditions: po, dose at which an average of 50% of the mice display symptoms, read-out: b SD50 mg/kg oral
mouse [4] = assay: Mice falling from a rotating bar (Table III, a); type: in vivo; conditions: ip, read-out: a PD50 mg/kg i.p.
From the text: The central damping actions of the piperazinyl quinazolones on the mouse can be seen from Table III.
a = dose at which 50% of the mice fall from a rotating bar;

[5] = test system: duration of sleep of mice under hexobarbital; assay: Prolongation of hexobarbital sleep in mice (Table III, d); type: in vivo; conditions: Mus musculus, ip; 15 mg/kg i.p.; 75 mg/kg hexobarbital; read-out: d % prolongation of sleep under hexebarbital by 15 mg/kg i.p.
Experimental: d = percentage prolongation of the duration of sleep of mice which had received 75 mg/kg. of hexobarbital, reckoned on the duration of the sleep of control animals.

[6] = test system: hypertensive effect of 1-adrenalin; assay: 50% inhibition of hypertensive effect of 0.001 mg/kg i/v 1-adrenalin on the despinalised rat (Table II); type: in vivo; conditions: iv, read-out: 50% inhibition of hypertensive effect after i/v dose of Adrenalin by mg/kg i/v
Experimental: (§1) also on the hypertensive effect of 0.001 mg/kg i/v 1-adrenalin and
(§2) blood pressure and the cardiac frequency of the narcosed rate and also on
(§3) the hypertensive effect of 0.001 mg/kg i.v. 1-adrenaline and noradrenaline
(§4) on the despinalised rat. The mean lethal doses for the mouse are also

[7] = test system: blood pressure and cardiac frequency of the narcotised rat; assay: Influence on the blood pressure and the cardiac frequency of the narcotised rat (Table II); type: in vivo; conditions: iv, i/v, read-out: Blood pressure lowered by 30% by mg/kg i/v
From the text: Influence on the blood pressure and the cardiac frequency of the
blood pressure and the cardiac frequency of the narcosed rate and also on […]

[8] = LD50 (mean lethal dose) on the mouse (Table II); conditions: in vivo
From the text: as §4

[9] = test system: hypertensive effect of noradrenalin; assay: 50% inhibition of hypertensive effect of 0.001 mg/kg i/v noradrenalin on the despinalised rat (Table II); type: in vivo; conditions: iv, read-out: 50% inhibition of hypertensive effect after i/v dose of Noradrenalin by mg/kg i/v
Experimental: as §1, §2, §3, §4

carotid sinus reflex = assay: Inhibition of the carotid sinus reflex of the narcotised cat (Table I); type: in vivo; set-up: unit not given here; conditions: for Inhibition of the carotid sinus reflex by 30% by: dose for 30% inhibition; for Inhibition of the carotid sinus reflex by 50% by: dose for 50% inhibition
From the text: (§5) Influence on the blood pressure and cardiac frequency and also
(§6) on the carotid sinus reflex of the narcotised cat
(§7) Table I provides a general summary of the influence of different piperazinylquinazolones on the blood pressure, the cardiac frequency and the carotid sinus reflex of the narcotised cat.
The inhibition of the carotid sinus reflex brought about by the piperazinyl quinazolones occurs at lower doses than the spontaneous lowering of the blood pressure in the cat.

[10] = test system: blood pressure and cardiac frequency of the narcotised cat; assay: Influence on the blood pressure and cardiac frequency of the narcotised cat (Table I); type: in vivo; set-up: unit not given here; conditions: for Blood pressure lowered by 30% by: dose lowering blood pressure by 30%; for Blood pressure lowered by 50% by: dose lowering blood pressure by 50%
From the text: as §5, §6, §7

[11] = dose at which 50% of the mice fall from a rotating bar

SMILES	ED25 ([1]; mouse, per os, 25% delay)	inhibition in vivo at 12 mg/kg [2]	inhibition in vivo at 25 mg/kg [2]	ED50 (mouse [3])	ED50 (mouse [4])	change in vivo at 15 mg/kg [5]	ED50 [6]	ED30 [7]	LD50 [8]	ED50 [9]	Inhibition of the carotid sinus reflex by 30% by (carotid sinus reflex)	Inhibition of the carotid sinus reflex by 50% by (carotid sinus reflex)	Blood pressure lowered by 30% by [10]	Blood pressure lowered by 50% by [10]	ED50 (mouse [4]; [11])	ED25 ([1]; Mus musculus)
Cc1c(N(C)C)c(=O)n(-c2ccccc2)n1C [Aminophenazone, 4-dimethylamino-1-phenyl-2,3-dimethylpyrazolone-5, reference compound]	80 mg/kg															
CNC1=Nc2ccc(Cl)cc2C(c2ccccc2)=[N+]([O-])C1 [Chlordiazepoxide, chlorodiazepoxide, reference compound]		15%	19%	8 mg/kg	38 mg/kg	324%										
COc1cc2nc(CCN3CCN(c4ccccc4)CC3)[nH]c(=O)c2cc1OC [Example 1, 2-(2-(1-phenylpiperazinyl-4)ethyl)-6,7-dimethoxy-4(3H)-quinazolone]	1.5 mg/kg	15%	55%	1000 mg/kg	33 mg/kg	64%	0.23 mg/kg	0.3 mg/kg	70 mg/kg	5 mg/kg						
COc1cc2nc(CCN3CCN(c4ccccc4C)CC3)[nH]c(=O)c2cc1OC [Example 2, 2-(2-(1-(2-tolyl)-piperazinyl-4)ethyl)-6,7-dimethoxy-4(3H)-quinazolone]	1 mg/kg	11%	10%	140 mg/kg	35 mg/kg	121%	0.042 mg/kg	0.65 mg/kg	70 mg/kg	1.4 mg/kg	< 0.01	0.02	0.029	> 1.6		
COc1cc2nc(CCN3CCN(c4cccc(C)c4)CC3)[nH]c(=O)c2cc1OC [Example 3, 2-(2-(1-(3-tolyl)piperazinyl-4)ethyl)-6,7-dimethoxy-4(3H)-quinazolone]	2 mg/kg	13%	41%	60 mg/kg	24 mg/kg	69%	0.35 mg/kg	0.32 mg/kg	200 mg/kg	5 mg/kg						
COc1cc2nc(CCN3CCN(c4ccc(C)cc4)CC3)[nH]c(=O)c2cc1OC [Example 4]	3 mg/kg	51%	65%	70 mg/kg	23 mg/kg	125%		0.65 mg/kg	100 mg/kg							
COc1cc2nc(CCN3CCN(c4cccc(C(F)(F)F)c4)CC3)[nH]c(=O)c2cc1OC [Example 5, 2-(2-(1-(3-trifluoromethylphenyl)piperazinyl-4)ethyl)-6,7-dimethoxy-4(3H)-quinazolone]	< 1 mg/kg															
COc1cc2nc(CCN3CCN(c4ccccc4OC)CC3)n(C)c(=O)c2cc1OC [Example 8]							0.035 mg/kg	0.12 mg/kg	350 mg/kg							
CCOc1ccccc1N1CCN(CCc2nc3cc(OC)c(OC)cc3c(=O)[nH]2)CC1 [Example 10, 2-(2-(1-(2-ethoxyphenyl)piperazinyl-4)ethyl)-6,7-dimethoxy-4(3H)-quinazolone]	2 mg/kg						0.0085 mg/kg	0.4 mg/kg	300 mg/kg	1.8 mg/kg	< 0.02	0.03	0.03	1.4		
COc1cc2nc(CCN3CCN(c4ccccc4Cl)CC3)[nH]c(=O)c2cc1OC [Example 11, 2-(2-(1-(2-chlorophenyl)piperazinyl-4)ethyl)-6,7-dimethoxy-4(2H)-quinazolone]	4 mg/kg	18%	32%	110 mg/kg	53 mg/kg	87%	0.048 mg/kg	0.1 mg/kg	200 mg/kg	> 2.5 mg/kg	0.017	0.04	0.04	> 1.6		
COc1cc2nc(CCN3CCN(c4cccc(Cl)c4)CC3)[nH]c(=O)c2cc1OC [Example 12, 2-(2-(1-(3-chlorophenyl)piperazinyl-4)ethyl)-6,7-dimethoxy-4(3H)-quinazolone]	1.5 mg/kg	0%	19%	500 mg/kg		78%									34 mg/kg	
COc1cc2nc(CCN3CCN(c4ccc(Cl)cc4)CC3)[nH]c(=O)c2cc1OC [Example 13, 2-(2-(1-(4-chlorophenyl)piperazinyl-4)ethyl)-6,7-dimethoxy-4(3H)-quinazolone]	2 mg/kg	15%	15%	200 mg/kg		44%									46 mg/kg	
COc1cc2nc(CCN3CCN(c4cccc(F)c4)CC3)[nH]c(=O)c2cc1OC [Example 15, 2-(2-(1-(3-fluorophenyl)piperazinyl-4)ethyl)-6,7-dimethoxy-4(3H)-quinazolone]	1 mg/kg						0.32 mg/kg	0.2 mg/kg	200 mg/kg	4.3 mg/kg						
COc1cc2nc(CCN3CCN(c4ccc(F)cc4)CC3)[nH]c(=O)c2cc1OC [Example 16, 2-(2-(1(4-fluorophenyl)piperazinyl-4)ethyl)-6,7-dimethoxy-4(3H)-quinazolone]	2.5 mg/kg	10%	49%	65 mg/kg	14 mg/kg	103%	0.57 mg/kg	0.6 mg/kg	300 mg/kg	4 mg/kg						
COc1ccc(N2CCN(CCc3nc4cc(OC)c(OC)cc4c(=O)[nH]3)CC2)cc1 [Example 17, 2-(2-(1-(4-methoxyphenyl)piperazinyl-4)ethyl)-6,7-dimethoxy-4(3H)-quinazolone]	2 mg/kg												4.5	> 1.5		
COc1cc2nc(CN3CCN(c4ccccc4OC)CC3)[nH]c(=O)c2cc1OC [Example 18, 2-(1-(2-methoxyphenyl)piperazinyl-4)methyl-6,7-dimethoxy-4(3H)-quinazolone]	8 mg/kg		12%	1000 mg/kg		> 15%										
COc1cc2nc(CCCN3CCN(c4ccccc4OC)CC3)[nH]c(=O)c2cc1OC [Example 20, 2-(3-(1-(2-methoxy-phenyl)-piperazinyl-4)-n-propyl)-6,7-dimethoxy-4(3H)-quinazolone]	2 mg/kg						0.05 mg/kg	0.65 mg/kg	300 mg/kg	1.15 mg/kg						
CCCC(C)(COC(N)=O)COC(N)=O [Meprobamate, reference compound]		11%	28%	300 mg/kg	95 mg/kg	18%										
CN1CC[C@]23c4c5ccc(O)c4O[C@H]2[C@@H](O)C=C[C@H]3[C@H]1C5.Cl [Morphine hydrochloride, morphine hydrochloride, reference compound]																2 mg/kg
Cc1ccc(N(CC2=NCCN2)c2cccc(O)c2)cc1 [Phentolamine, phentolamine, reference compound]							0.047 mg/kg	0.63 mg/kg	200 mg/kg	0.18 mg/kg	0.1	0.5	0.1	0.7		
